# Values quoted from earlier work as cited in the CATMoS acute toxicity set (Mansouri et al. 2021).
# Where “and” joins values, the source holds several entries; their conditions need not be identical. Equal entries are not always repeated.
# Assay: rat acute oral toxicity
# Conditions: in vivo
row,Compound,LD50
1,COc1ccc(CN2CCN(C(c3ccc(F)cc3)c3ccc(F)cc3)CC2)c(OC)c1OC,307 mg/kg
2,OCCCC(O)CO (stereo not given),7800 mg/kg
3,CCC1(c2ccccc2)CCC(=O)NC1=O (stereo not given),600 mg/kg
4,COc1ccccc1OCC(O)COC(N)=O (stereo not given),1320 mg/kg
5,CCC(O)OC(C)(C)C (stereo not given),2520 mg/kg
6,c1ccc2[nH]c(SN3CCCCC3)nc2c1,853 mg/kg
7,"COc1cccc([C@]2(O)CCCC[C@H]2CN(C)C)c1 (single isomer, unassigned)",228 mg/kg
8,CN(C)CCOC(C)(c1ccccc1)c1ccc(Cl)cc1 (stereo not given),1000 mg/kg
9,CCN(CC)N=Nc1cccnc1,210 mg/kg
10,COc1cc(OC)nc(NC(=O)NS(=O)(=O)c2cc(NC=O)ccc2C(=O)N(C)C)n1,3880 mg/kg
11,CCSN(C)C(=O)Oc1cccc2c1OC(C)(C)C2,25 mg/kg
12,CCN(CC)CCOc1ccc(C2=C(c3ccccc3)Cc3cc(OC)ccc32)cc1,547 mg/kg
13,CCCCCCCCCCCCCCCC[N+](C)(C)C,410 mg/kg
14,O=C(COc1ccc(Cl)cc1Cl)OCC=CCCl,547 mg/kg
15,Clc1nc(Cl)c(Cl)[nH]1,11 mg/kg
16,O=C(O)/C=C/C(=O)O,3850 mg/kg
17,Cc1ccc(S(=O)(=O)O)cc1,2570 mg/kg
18,CCC1(C)CC(=O)NC1=O (stereo not given),1820 mg/kg
19,O=C(c1ccc2ccccc2n1)N1CCN=C1Nc1c(Cl)cccc1Cl,44 mg/kg
20,NCCc1ccc(O)c(O)c1,2860 mg/kg
21,CC1(C)OCC(COC(=O)Cc2ccc3c(c2)OCc2ccccc2C3=O)O1 (stereo not given),92 mg/kg
22,CCOc1ccc(NC(=O)C(N=Nc2ccc(-c3ccc(N=NC(C(C)=O)C(=O)Nc4ccc(OCC)cc4)c(Cl)c3)cc2Cl)C(C)=O)cc1 (stereo not given),2230 mg/kg
23,OCCN(CCO)C1CCCCC1,2600 mg/kg
24,CCCCCCCCCCCCCCCCCC1=NCCN1,3170 mg/kg and 4600 mg/kg and 1970 mg/kg
25,C=CCON/C(CCC)=C1\C(=O)CC(C)(C)C(C(=O)OC)C1=O (stereo not given),2260 mg/kg
26,CC(C)[N+](=O)[O-],720 mg/kg
27,O=C(OCCOCCN1CCCCC1)N1c2ccccc2Sc2cccnc21,530 mg/kg

row,Compound,LD50
1,CCCCCCCCc1ccc(-c2ccc(C#N)cc2)cc1,2200 mg/kg
2,CCCC(=O)OC(=O)CCC,8790 mg/kg
3,COc1cc(C(F)(F)F)ccn1,1750 mg/kg
4,CCOP(=S)(N=C1SCCS1)OCC,14 mg/kg
5,Cc1cc(C(=O)c2ccccc2)ccc1N,700 mg/kg
6,CCCSc1nc(Cl)c([N+](=O)[O-])c(Cl)n1,300 mg/kg
7,CC(C)OCCCO,4000 mg/kg
8,C[N+](C)(C)C,77 mg/kg and 50 mg/kg
9,O=CC1C(=O)N(c2ccccc2)N=C1c1ccccc1 (stereo not given),789 mg/kg
10,CCCOCN(C(=O)CCl)c1c(C)cccc1OCC,2100 mg/kg
11,CCCCCCCCCCCCC(Br)C(=O)O (stereo not given),800 mg/kg
12,CCCCCCOC(C[n+]1ccccc1)c1ccc(C2CCCCC2)cc1 (stereo not given),250 mg/kg
13,N#CCc1ccccc1,270 mg/kg
14,CC(=O)CCC(C)=O,2080 mg/kg
15,CNC(=O)Oc1ccccc1OC(CCl)OC (stereo not given),35.4 mg/kg
16,CC(C)=CC1C(C(=O)Cl)C1(C)C (stereo not given),400 mg/kg
17,O=C1CC=C(O)N=N1,3900 mg/kg
18,O=c1oc2cc(Cl)ccc2n1CCl,2350 mg/kg
19,CC(C)(C)C(CS(C)(=O)=O)=NO,734 mg/kg
20,CN(N=O)c1ccc(N=Nc2ccccc2)cc1,1200 mg/kg
21,CCOC(=O)c1c[n+](CC)c2n(c1=O)C(C)CCC2 (stereo not given),1350 mg/kg
22,CCN(CC)C(=O)c1cccc(OC)c1O,2080 mg/kg
23,C1CCNC1,300 mg/kg
24,Cc1c(Cl)ccc2[nH]c(C(F)(F)F)nc12,22 mg/kg
25,Cc1cccc2sc(N)nc12,500 mg/kg
26,CN=C1C=CC(=C(c2ccc(N(C)C)cc2)c2ccc(N(C)C)cc2)C=C1,413 mg/kg
27,O=C(O)CN(CCO)CCN(CC(=O)O)CC(=O)O,10000 mg/kg

row,Compound,LD50
1,C=CC(=O)OCC[N+](C)(C)C,500 mg/kg
2,COC1=C2C[C@@H](C)C[C@H](OC)[C@H](O)[C@@H](C)C=C(C)[C@H](OC(N)=O)[C@@H](OC)C=CC=C(C)C(=O)NC(=CC1=O)C2=O,2500 mg/kg
3,Cc1ccnc(SCCC(F)=C(F)F)n1,844 mg/kg
4,CC(C(=O)O)c1ccc2oc3ccccc3c(=O)c2c1 (stereo not given),720 mg/kg
5,ClCC1C(CCl)C2(Cl)C(Cl)=C(Cl)C1(Cl)C2(Cl)Cl (stereo not given),200 mg/kg
6,OC(CNCC(O)C1COc2ccccc2O1)C1COc2ccccc2O1 (stereo not given),4490 mg/kg
7,CC(C)N(CCON=C1CCCCCC1=Cc1ccccc1)C(C)C,537 mg/kg
8,CCOP(=O)(OCC)C(SCC)(Sc1ccccc1)P(=O)(OCC)OCC,24 mg/kg
9,COC(=O)C1=C(C)NC(C)=C(C(=O)OC)C1c1ccccc1[N+](=O)[O-],1020 mg/kg
10,OCCN1CC1,74 mg/kg
11,O=[N+]([O-])c1cc(Br)c2nc(C(F)(F)F)[nH]c2c1,14.5 mg/kg
12,O=C(Nc1cc(Cl)cc(Cl)c1O)c1c(O)c(Cl)cc(Cl)c1Cl,1000 mg/kg
13,COP(=S)(OC)SCSc1ccc(Cl)cc1,48 mg/kg
14,CC(C)=Cc1ccc(C(C)C(=O)O)cc1 (stereo not given),1300 mg/kg
15,CN(C)CCCOc1nn(Cc2ccccc2)c2ccccc12,740 mg/kg and 950 mg/kg
16,CCC(C)NC(=S)C(=S)NC(C)CC (stereo not given),6 mg/kg
17,CCOP(=S)(OCC)SCC(=O)NC(C)C,8 mg/kg
18,Clc1cncc(N2CCNCC2)n1,79.6 mg/kg
19,CC(C(O)c1ccccc1)N(C)CCC#N (stereo not given),940 mg/kg
20,C=CCOC1=NS(=O)(=O)c2ccccc21,2030 mg/kg
21,Cc1ccc(C)c([N+](=O)[O-])c1,2440 mg/kg
22,O=C(O)C1CC=CCC1 (stereo not given),4260 mg/kg
23,CNC(=O)Oc1ccc(NC(=O)C(F)(F)Cl)c(C)c1,48.5 mg/kg
24,Cc1ccn(C(=O)NCCCCNC(=O)n2ccc(C)n2)n1,4600 mg/kg
25,Nc1ccc(C(F)(F)F)cc1NC(=O)c1cccnc1,850 mg/kg
26,CCOP(=S)(OCC)Oc1cc(C)[nH]n1,12 mg/kg
27,CC(C)(c1ccccc1)c1ccc(O)cc1,1770 mg/kg

row,Compound,LD50
1,CCOP(=O)(OCC)SCCS(=O)(=O)CC,1.9 mg/kg
2,CN1CCN(C2=Nc3ccccc3Sc3ccc(Cl)cc32)CC1,280 mg/kg
3,CN(C(O)=NC(C)(C)c1ccccc1)c1ccccc1,6130 mg/kg
4,Cc1ccc(N=CN(C)Sc2ccc(Cl)cc2)c(C)c1,320 mg/kg
5,CCOP(=O)(OC=C(Cl)Cl)OCC(Cl)CCl (stereo not given),66 mg/kg
6,COCCOc1cnc(NS(=O)(=O)c2ccccc2)nc1,3100 mg/kg
7,CCc1occc(=O)c1O,1150 mg/kg
8,NCC1CCC(CN)CC1 (stereo not given),530 mg/kg
9,OC(CCl)CNc1ccccc1NCC(O)CCl (stereo not given),900 mg/kg
10,CCCCCCC#COC(=O)OCC,2850 mg/kg
11,CS(=O)(=O)OC[C@@H]1O[C@H]1[C@@H]1O[C@H]1COS(C)(=O)=O,225 mg/kg
12,CCCCCC(C)O (stereo not given),2580 mg/kg
13,Nc1ccc2ccccc2c1,727 mg/kg
14,COC(CN1CCN(CC(O)C(OC)c2ccccc2)CC1)c1ccccc1 (stereo not given),435 mg/kg
15,C=CCC1(C(C)CCC)C(=O)N=C(O)NC1=O (stereo not given),125 mg/kg
16,O=C(O)CCCCCCCl,1800 mg/kg
17,S=c1[nH]n(-c2ccccc2)c(=S)s1,763 mg/kg
18,N[C@@H](Cc1c[nH]c2ccc(O)cc12)C(=O)O,243 mg/kg
19,CC[C@H]1[C@@H]2C[C@H]3[C@@H]4N(C)c5ccccc5[C@]45C[C@@H](C2[C@H]5O)N3[C@@H]1O (stereo not given in full),360 mg/kg
20,O=C(O)C1C(C(=O)O)C2(Cl)C(Cl)=C(Cl)C1(Cl)C2(Cl)Cl (stereo not given),1770 mg/kg
21,O=C1NC(CCCl)Oc2ccccc21 (stereo not given),10000 mg/kg
22,N#Cc1nn(-c2c(Cl)cc(C(F)(F)F)cc2Cl)c(N)c1S(=O)(=O)C(F)(F)F,184 mg/kg
23,CCN[C@H](C)Cc1cccc(C(F)(F)F)c1,195 mg/kg
24,CC(C)(C)C(=O)C(Oc1ccc(Cl)cc1)n1ccnc1 (stereo not given),400 mg/kg
